Test results published in patent US8163906B2, “Dihydroquinone and dihydronaphthridine inhibitors of JNK” (Roche Palo Alto, LLC, priority 2007, dated 2012).
Read-outs that look alike come from different tables or passages of the source.

Columns and labels:
Human JNK1α1 = Human JNK1α1 (Homo sapiens, UniProt P45983); assay: JNK assay in vitro, phosphorylation of GST-ATF2 with [γ-33P] ATP (JNK1); type: biochemical; settings: 1 μM ATF2, 30° C. 30 min
Method: (§1) JNK activity was measured by phosphorylation of GST-ATF2 (19-96) with [γ-^33P] ATP. […] Human JNK2α2 assay contains 1 nM enzyme, 1 μM ATF2, 8 μM ATP with 1 uCi [γ-^33P] ATP. Human JNK1α1 assay contains 2 nM enzyme, 1 μM ATF2, 6 μM ATP with 1 μCi [γ-^33P] ATP. […] ATP. The enzyme assay was carried out in the presence or absence of several compound concentrations. JNK and compound were pre-incubated for 10 min., followed by initiation of the enzymatic reaction by adding ATP and the substrate. The reaction mixture was incubated at 30° C. for 30 min. […] The incorporation of ^33P into ATF2 was quantified on a microplate scintillation counter (Packard Topcount). Compound inhibition potency on JNK was measured by IC50 value generated from ten concentration inhibition curves fitted into the 3-parameter model: % inhibition=Maximum/(1+(IC50/[Inhibitor])^slope). Data were analyzed on Microsoft Excel for parameter estimation.

Human JNK2α2 = Human JNK2α2 (Homo sapiens, UniProt P45984); assay: JNK assay in vitro, phosphorylation of GST-ATF2 with [γ-33P] ATP (JNK2); type: biochemical; settings: ATP at Km (8 μM), 1 μM ATF2, 30° C. 30 min
Method: as §1

[1] = tested on: TNFα-induced IL-6 production; assay: Rat in vivo TNFα-induced IL-6 production assay, oral gavage; set-up: species or system Female Wistar-Han rats; settings: 30 mg/Kg, 30 min prior to TNF-α i.p. challenge, plasma 90 min after challenge
Method: Female Wistar-Han rats procured from Charles River Laboratories were allowed to acclimate for one week prior to use and achieve an approximate body weight of 101-130 g. Rats were administered test compound (N=8 per compound) via oral gavage 30 min prior to an intraperitoneal challenge of 0.5 μg recombinant rat TNF-α (Biosource). Blood was collected via cardiocentesis 90 min after TNF-α challenge. Plasma was prepared using lithium heparin separation tubes (BD microtainer) and frozen at −80° C. until analyzed. IL-6 levels were determined using a rat specific IL-6 ELISA kit (Biosource). The percent inhibition and ED50 values (calculated as the dose of compound at which […] is 50% of the control value) were determined.

[2] = ATP at Km (6 μM), read-out: IC50 vs. JNK1
[3] = IC50 vs. JNK1, ATP at Km (6 μM)

Sequence of Human JNK1α1 (P45983 1-384 isoform P45983-2): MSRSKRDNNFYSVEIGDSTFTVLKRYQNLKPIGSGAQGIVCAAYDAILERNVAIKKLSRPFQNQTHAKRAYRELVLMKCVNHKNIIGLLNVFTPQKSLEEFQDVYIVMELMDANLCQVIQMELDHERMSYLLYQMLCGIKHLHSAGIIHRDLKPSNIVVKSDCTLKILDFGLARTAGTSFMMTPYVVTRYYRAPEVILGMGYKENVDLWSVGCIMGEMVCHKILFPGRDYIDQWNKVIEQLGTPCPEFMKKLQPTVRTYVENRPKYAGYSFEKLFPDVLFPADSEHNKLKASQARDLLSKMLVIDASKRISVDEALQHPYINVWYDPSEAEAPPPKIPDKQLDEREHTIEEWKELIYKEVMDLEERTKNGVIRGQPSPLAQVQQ
Sequence of Human JNK2α2 (P45984 whole entry): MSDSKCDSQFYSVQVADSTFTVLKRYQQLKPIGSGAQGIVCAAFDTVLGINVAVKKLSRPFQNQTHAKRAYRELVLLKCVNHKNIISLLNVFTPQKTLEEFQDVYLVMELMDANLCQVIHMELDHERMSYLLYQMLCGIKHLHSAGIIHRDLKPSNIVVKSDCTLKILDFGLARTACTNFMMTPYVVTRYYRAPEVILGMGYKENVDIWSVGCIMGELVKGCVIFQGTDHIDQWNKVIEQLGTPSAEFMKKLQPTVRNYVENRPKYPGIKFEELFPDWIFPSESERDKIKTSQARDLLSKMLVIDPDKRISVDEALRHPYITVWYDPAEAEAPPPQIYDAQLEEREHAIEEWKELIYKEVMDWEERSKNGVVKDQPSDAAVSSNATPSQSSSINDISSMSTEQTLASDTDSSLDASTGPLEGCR

Row | Structure (SMILES) | IC50 (Human JNK1α1; [2]) [µM] | melting point [°C] | IC50 (Human JNK2α2) [µM] | IC50 (Human JNK1α1; [3]) [µM] | IL-6 Inhibition (%) [1] [%]
1 | COC(=O)c1c(CN2CCC(N3CCOCC3)CC2)c(=O)c2ccc(F)cc2n1-c1ccccc1 [Compound 135] | 0.25 | 161 to 163 | 2.1 | – | –
2 | CC(=O)c1c(Cc2ccc(S(=O)(=O)N3CCC(O)CC3)cc2)c(=O)c2ccc(Cl)cc2n1-c1ccccc1 [Compound 70, 2-Acetyl-7-chloro-3-[4-(4-hydroxypiperidine-1-sulfonyl)-benzyl]-1-phenyl-1H-quinolin-4-one] | 0.134 | 145.5 to 147.2 | 0.399 | – | –
3 | COC(=O)c1c(Cc2ccc(S(=O)(=O)NCC(C)(C)O)cc2)c(=O)c2ccc(Cl)cc2n1-c1ccccc1 [Compound 85, 3-[4-(2-Hydroxy-2-methylpropylsulfonamoyl)benzyl]-4-oxo-7-chloro-1-phenyl-1,4-dihydroquinoline-2-carboxylic acid methyl ester] | 0.0481 | 240 to 242.6 | 0.118 | – | –
4 | COC(=O)c1c(Cc2ccc(S(=O)(=O)N(C)CCO)cc2)c(=O)c2ccc(Cl)cc2n1-c1ccccc1 [Compound 59, 7-Chloro-3-{4-[(2-hydroxyethyl)-methyl-sulfamoyl]-benzyl}-4-oxo-1-phenyl-1,4-dihydroquinoline-2-carboxylic acid methyl ester] | 0.0226 | – | 0.0614 | – | –
5 | COC(=O)c1c(Cc2ccc(S(=O)(=O)N3CCOCC3)cc2)c(=O)c2ccc(Cl)cc2n1-c1ccccc1 [Compound 31, 7-Chloro-3-[4-(morpholine-4-sulfonyl)-benzyl]-4-oxo-1-phenyl-1,4-dihydroquinoline-2-carboxylic acid methyl ester] | 0.0529 | – | 0.161 | – | –
6 | COC(=O)c1c(Cc2ccc(S(=O)(=O)N3CCNCC3)cc2)c(=O)c2ccc(Cl)cc2n1-c1ccccc1.O=C(O)C(F)(F)F [Compound 66, 7-chloro-4-oxo-1-phenyl-3-[4-(piperazine-1-sulfonyl)-benzyl]-1,4-dihydro-quinoline-2-carboxylic acid methyl ester trifluoroacetate] | – | 203 to 205 | 0.0445 | 0.0181 | –
7 | COC(=O)c1c(Cc2ccc(S(=O)(=O)N3CC[C@H](O)C3)cc2)c(=O)c2ccc(Cl)cc2n1-c1ccccc1 [Compound 87, 7-Chloro-3-[4-(3-hydroxypyrrolidine-1-sulfonyl)-benzyl]-4-oxo-1-phenyl-1,4-dihydroquinoline-2-carboxylic acid methyl ester] | 0.0334 | 135 to 136 | 0.0832 | – | –
8 | COC(=O)c1c(Cc2ccc(S(=O)(=O)NCC(O)CO)cc2)c(=O)c2ccc(Cl)cc2n1-c1ccccc1 (stereo not shown) [Compound 46, 7-chloro-3-[4-(2,3-dihydroxy-propylsulfamoyl)-benzyl]-4-oxo-1-phenyl-1,4-dihydroquinoline-2-carboxylic acid methyl ester] | 0.0454 | – | 0.137 | – | –
9 | COC(=O)c1c(Cc2ccc(S(=O)(=O)C(C)CO)cc2)c(=O)c2ccc(Cl)cc2n1-c1ccccc1 (stereo not shown) [Compound 117] | 0.032 | 175.3 to 180.3 | 0.0867 | – | –
10 | COC(=O)c1c(Cc2ccc(S(=O)(=O)NCCO[Si](C)(C)C(C)(C)C)cc2)c(=O)c2ccc(Cl)cc2n1-c1ccccc1 [Compound 60, 3-{4-[2-(tert-Butyl-dimethyl-silanyloxy)-ethylsulfamoyl]-benzyl}-7-chloro-4-oxo-1-phenyl-1,4-dihydroquinoline-2-carboxylic acid methyl ester] | 1.63 | – | 4.98 | – | –
11 | Nc1cccc(-n2c(-c3ncco3)c(Cc3ccccc3)c(=O)c3ccc(Cl)cc32)n1 [Compound 141, 1-(6-amino-pyridin-2-yl)-3-benzyl-7-chloro-2-oxazol-2-yl-1H-quinolin-4-one] | 0.612 | 279.3 to 282.8 | 2.09 | – | –
12 | CC(=O)c1c(Cc2ccc(S(=O)(=O)N3CCN(C)CC3)cc2)c(=O)c2ccc(Cl)cc2n1-c1ccccc1 [Compound 72, 2-acetyl-7-chloro-3-[4-(4-methylpiperazine-1-sulfonyl)-benzyl]-1-phenyl-1H-quinolin-4-one] | 0.154 | 206.3 to 208 | 0.336 | – | –
13 | CCC(=O)c1c(Cc2ccc(S(=O)(=O)N3CCN(C)CC3)cc2)c(=O)c2ccc(Cl)cc2n1-c1ccccc1 [Compound 80, 7-chloro-3-[4-(4-methylpiperazin-1-sulfonyl)benzyl]-1-phenyl-2-propionyl-1H-quinlin-4-one] | 0.193 | > 300 | 0.477 | – | –
14 | COC(=O)c1c(Cc2ccc(S(=O)(=O)N3CCN(C)CC3)cc2)c(=O)c2ccc(Cl)cc2n1-c1ccccc1 [Compound 30, 7-chloro-3-[4-(4-methyl-piperazine-1-sulfonyl)-benzyl]-4-oxo-1-phenyl-1,4-dihydroquinoline-2-carboxylic acid methyl ester] | 0.0355 | 223.3 to 226.6 | 0.0863 | – | 46
15 | COC(=O)C(=O)NS(=O)(=O)c1ccc(Cc2c(C(=O)OC)n(-c3ccccc3)c3cc(Cl)ccc3c2=O)cc1 [Compound 64, 7-Chloro-3-[4-(methoxyoxalyl-sulfamoyl)-benzyl]-4-oxo-1-phenyl-1,4-dihydroquinoline-2-carboxylic acid methyl ester] | 0.603 | – | 2.06 | – | –
16 | COC(=O)c1c(Cc2ccc(S(=O)(=O)N3CCN(C(=O)OC(C)(C)C)CC3)cc2)c(=O)c2ccc(Cl)cc2n1-c1ccccc1 [Compound 63, 3-[4-(4-tert-Butoxycarbonyl-piperazine-1-sulfonyl)-benzyl]-7-chloro-4-oxo-1-phenyl-1,4-dihydroquinoline-2-carboxylic acid methyl ester] | 0.0987 | – | 0.212 | – | –
17 | COC(=O)c1c(Cc2ccc(S(=O)(=O)N3CCC(O)CC3)cc2)c(=O)c2ccc(Cl)cc2n1-c1ccccc1 [Compound 69, 7-Chloro-3-[4-(4-hydroxypiperidine-1-sulfonyl)-benzyl]-4-oxo-1-phenyl-1,4-dihydroquinoline-2-carboxylic acid methyl ester] | 0.0184 | 170 to 171 | 0.047 | – | –
18 | COC(=O)c1c(Cc2ccc(S(=O)(=O)N3CCC(O)CC3)cc2)c(=O)c2ccc(F)cc2n1-c1ccccc1 [Compound 110] | 0.0502 | 232 to 233 | 0.201 | – | –
19 | COC(=O)c1c(Cc2ccc(S(=O)(=O)N3CCNCC3)cc2)c(=O)c2ccc(Cl)cc2n1-c1ccccc1.Cl [Compound 67, 7-Chloro-4-oxo-1-phenyl-3-[4-(piperazine-1-sulfonyl)-benzyl]-1,4-dihydroquinoline-2-carboxylic acid methyl ester bishydrochloride] | – | 214 to 215.5 | 0.0485 | 0.0304 | –
20 | COC(=O)c1c(Cc2ccc(S(=O)(=O)NCCO)cc2)c(=O)c2ccc(Cl)cc2n1-c1ccccc1 [Compound 65, 7-chloro-3-[4-(2-hydroxy-ethylsulfamoyl)-benzyl]-4-oxo-1-phenyl-1,4-dihydro-quinoline-2-carboxylic acid methyl ester] | 0.0328 | 191.5 to 193.1 | 0.0957 | – | –
21 | COC(=O)c1c(Cc2ccc(S(=O)(=O)N(C)C)cc2)c(=O)c2ccc(Cl)cc2n1-c1ccccc1 [Compound 32, 7-Chloro-3-(4-dimethylsulfamoyl-benzyl)-4-oxo-1-phenyl-1,4-dihydroquinoline-2-carboxylic acid methyl ester] | 0.0445 | 218.1 to 219.5 | 0.129 | – | –
